Converted amounts (≈) assume the structure as drawn. The source made the active and inactive calls. The rule behind the calls is not given here.
Legend:
Enterococcus faecalis [1] = assay: Antibacterial activity against vancomycin- resistant Enterococcus faecalis by CLSI M100-S18 method; type: functional
Staphylococcus aureus = assay: Antibacterial activity against ciprofloxacin-susceptible and methicillin-resistant Staphylococcus aureus by CLSI M100-S18 method; type: functional
[2] = test system: Staphylococcus saprophyticus; assay: Antibacterial activity against Staphylococcus saprophyticus by CLSI M100-S18 method; type: functional
[3] = Antibacterial activity against Lancefield Streptococcus sp. 'group C' by CLSI M100-S18 method; type: functional
Streptococcus pneumoniae = assay: Antibacterial activity against non-levofloxacin susceptible Streptococcus pneumoniae by CLSI M100-S18 method; type: functional
Streptococcus anginosus [4] = assay: Antibacterial activity against Streptococcus anginosus by CLSI M100-S18 method; type: functional
[5] = test system: Streptococcus constellatus; assay: Antibacterial activity against Streptococcus constellatus by CLSI M100-S18 method; type: functional
[6] = test system: Streptococcus intermedius; assay: Antibacterial activity against Streptococcus intermedius by CLSI M100-S18 method; type: functional
Streptococcus mitis [7] = assay: Antibacterial activity against Streptococcus mitis by CLSI M100-S18 method; type: functional
Streptococcus salivarius [8] = assay: Antibacterial activity against Streptococcus salivarius by CLSI M100-S18 method; type: functional
Streptococcus sanguinis [9] = assay: Antibacterial activity against Streptococcus sanguinis by CLSI M100-S18 method; type: functional
Acinetobacter lwoffii [10] = assay: Antibacterial activity against Acinetobacter lwoffii by CLSI M7-A7 method; type: functional
Klebsiella aerogenes = assay: Antibacterial activity against Enterobacter aerogenes by CLSI M7-A7 method; type: functional
Neisseria meningitidis [11] = assay: Antibacterial activity against Neisseria meningitidis by CLSI M7-A7 method; type: functional
Proteus vulgaris [12] = assay: Antibacterial activity against Proteus vulgaris by CLSI M7-A7 method; type: functional
Pseudomonas aeruginosa [13] = assay: Antibacterial activity against non-ciprofloxacin-susceptible Pseudomonas aeruginosa by CLSI M7-A7 method; type: functional
[14] = test system: Stenotrophomonas maltophilia; assay: Antibacterial activity against non-levofloxacin susceptible Stenotrophomonas maltophilia by CLSI M7-A7 method; type: functional
Enterococcus faecalis [15] = assay: Antibacterial activity against vancomycin- resistant Enterococcus faecalis assessed as percent susceptible isolates by CLSI M100-S18 method; type: functional
Enterococcus faecium = assay: Antibacterial activity against vancomycin- resistant Enterococcus faecium assessed as percent susceptible isolates by CLSI M100-S18 method; type: functional
[16] = test system: Staphylococcus epidermidis; assay: Antibacterial activity against non-ciprofloxacin-susceptible and methicillin-susceptible Staphylococcus epidermidis assessed as percent susceptible isolates by CLSI M100-S18 method; type: functional
Staphylococcus hominis = assay: Antibacterial activity against Staphylococcus hominis assessed as percent susceptible isolates by CLSI M100-S18 method; type: functional
Acinetobacter baumannii = assay: Antibacterial activity against Acinetobacter baumannii assessed as percent susceptible isolates by CLSI M7-A7 method; type: functional
[17] = test system: Acinetobacter calcoaceticus; assay: Antibacterial activity against Acinetobacter calcoaceticus assessed as percent susceptible isolates by CLSI M7-A7 method; type: functional
Acinetobacter lwoffii [18] = assay: Antibacterial activity against Acinetobacter lwoffii assessed as percent susceptible isolates by CLSI M7-A7 method; type: functional
Haemophilus influenzae = assay: Antibacterial activity against non-ciprofloxacin-susceptible Haemophilus influenzae assessed as percent susceptible isolates by CLSI M7-A7 method; type: functional
Klebsiella pneumoniae = assay: Antibacterial activity against Klebsiella pneumoniae assessed as percent susceptible isolates by CLSI M7-A7 method; type: functional
Moraxella catarrhalis = assay: Antibacterial activity against Moraxella catarrhalis assessed as percent susceptible isolates by CLSI M7-A7 method; type: functional
Morganella morganii = assay: Antibacterial activity against Morganella morganii assessed as percent susceptible isolates by CLSI M7-A7 method; type: functional
Neisseria meningitidis [19] = assay: Antibacterial activity against Neisseria meningitidis assessed as percent susceptible isolates by CLSI M7-A7 method; type: functional
Proteus vulgaris [20] = assay: Antibacterial activity against Proteus vulgaris assessed as percent susceptible isolates by CLSI M7-A7 method; type: functional
Pseudomonas aeruginosa [21] = assay: Antibacterial activity against ciprofloxacin-susceptible Pseudomonas aeruginosa assessed as percent susceptible isolates by CLSI M7-A7 method; type: functional
Pseudomonas aeruginosa [22] = assay: Antibacterial activity against non-ciprofloxacin-susceptible Pseudomonas aeruginosa assessed as percent susceptible isolates by CLSI M7-A7 method; type: functional
Serratia marcescens = assay: Antibacterial activity against levofloxacin susceptible Serratia marcescens assessed as percent susceptible isolates by CLSI M7-A7 method; type: functional
[23] = test system: Stenotrophomonas maltophilia; assay: Antibacterial activity against non-levofloxacin susceptible Stenotrophomonas maltophilia assessed as percent susceptible isolates by CLSI M7-A7 method; type: functional
[24] = test system: Stenotrophomonas maltophilia; assay: Antibacterial activity against levofloxacin-susceptible Stenotrophomonas maltophilia assessed as assessed as percent susceptible isolates by CLSI M7-A7 method; type: functional
[25] = test system: Staphylococcus epidermidis
Streptococcus agalactiae = assay: Antibacterial activity against Streptococcus agalactiae assessed as percent susceptible isolates by CLSI M100-S18 method; type: functional
Streptococcus anginosus [26] = assay: Antibacterial activity against Streptococcus anginosus assessed as percent susceptible isolates by CLSI M100-S18 method; type: functional
Streptococcus equinus = assay: Antibacterial activity against Streptococcus bovis assessed as percent susceptible isolates by CLSI M100-S18 method; type: functional
[27] = test system: Streptococcus constellatus; assay: Antibacterial activity against Streptococcus constellatus assessed as percent susceptible isolates by CLSI M100-S18 method; type: functional
[28] = test system: Streptococcus intermedius; assay: Antibacterial activity against Streptococcus intermedius assessed as percent susceptible isolates by CLSI M100-S18 method; type: functional
Streptococcus mitis [29] = assay: Antibacterial activity against Streptococcus mitis assessed as percent susceptible isolates by CLSI M100-S18 method; type: functional
Streptococcus oralis = assay: Antibacterial activity against Streptococcus oralis assessed as percent susceptible isolates by CLSI M100-S18 method; type: functional
Streptococcus salivarius [30] = assay: Antibacterial activity against Streptococcus salivarius assessed as percent susceptible isolates by CLSI M100-S18 method; type: functional
Streptococcus sanguinis [31] = assay: Antibacterial activity against Streptococcus sanguinis assessed as percent susceptible isolates by CLSI M100-S18 method; type: functional

`C[C@H]1COc2c(N3CCN(C)CC3)c(F)cc3c(=O)c(C(=O)O)cn1c23.C[C@H]1COc2c(N3CCN(C)CC3)c(F)cc3c(=O)c(C(=O)O)cn1c23.O` [LEVOFLOXACIN] showed an MIC50 (Enterococcus faecalis [1]) of 1 µg/mL, an MIC90 (Enterococcus faecalis [1]) of 64 µg/mL and an MIC50 (Staphylococcus aureus) of 0.12 µg/mL. The MIC90 (Staphylococcus aureus) was 0.25 µg/mL, the MIC50 [2] was 0.25 µg/mL and the MIC90 [2] was 0.5 µg/mL. The MIC50 [3] was 0.5 µg/mL, the MIC90 [3] was 0.5 µg/mL and the MIC50 (Streptococcus pneumoniae) was 16 µg/mL. It also gave an MIC90 (Streptococcus pneumoniae) of 16 µg/mL, an MIC50 (Streptococcus anginosus [4]) of 1 µg/mL and an MIC90 (Streptococcus anginosus [4]) of 1 µg/mL. It also gave an MIC50 [5] of 1 µg/mL, an MIC90 [5] of 4 µg/mL and an MIC50 [6] of 1 µg/mL. The MIC90 [6] was 4 µg/mL, the MIC50 (Streptococcus mitis [7]) was 1 µg/mL and the MIC90 (Streptococcus mitis [7]) was 4 µg/mL. The MIC50 (Streptococcus salivarius [8]) was 1 µg/mL, the MIC90 (Streptococcus salivarius [8]) was 4 µg/mL and the MIC50 (Streptococcus sanguinis [9]) was 1 µg/mL. For the same compound, the MIC90 (Streptococcus sanguinis [9]) was 4 µg/mL, the MIC50 (Acinetobacter lwoffii [10]) was 0.12 µg/mL and the MIC90 (Acinetobacter lwoffii [10]) was 4 µg/mL. For the same compound, the MIC50 (Klebsiella aerogenes) was 0.06 µg/mL, the MIC90 (Klebsiella aerogenes) was 16 µg/mL and the MIC50 (Neisseria meningitidis [11]) was 0.008 µg/mL. The MIC90 (Neisseria meningitidis [11]) was 0.015 µg/mL, the MIC50 (Proteus vulgaris [12]) was 0.03 µg/mL and the MIC90 (Proteus vulgaris [12]) was 0.06 µg/mL. The MIC50 (Pseudomonas aeruginosa [13]) was 16 µg/mL, the MIC90 (Pseudomonas aeruginosa [13]) was 64 µg/mL and the MIC [14] was 0.12 µg/mL. For the same compound, the Activity (Enterococcus faecalis [15]) was 58.5%, the Activity (Enterococcus faecium) was 30.9% and the Activity [16] was 0%. For the same compound, the Activity (Staphylococcus hominis) was 30%, the Activity (Acinetobacter baumannii) was 37.7% and the Activity [17] was 66.7%. It also gave an Activity (Acinetobacter lwoffii [18]) of 86%, an Activity (Haemophilus influenzae) of 27.3% and an Activity (Klebsiella pneumoniae) of 91%. The Activity (Moraxella catarrhalis) was 100%, the Activity (Morganella morganii) was 76.5% and the Activity (Neisseria meningitidis [19]) was 100%. For the same compound, the Activity (Proteus vulgaris [20]) was 100%, the Activity (Pseudomonas aeruginosa [21]) was 96.2% and the Activity (Pseudomonas aeruginosa [22]) was 1%. For the same compound, the Activity (Serratia marcescens) was 100%, the Activity [23] was 100% and the Activity [24] was 0%. For the same compound, the MIC90 [25] was “inactive”.
Work on `NC[C@H]1O[C@H](O[C@H]2[C@H](O)[C@@H](O[C@H]3O[C@H](CO)[C@@H](O)[C@H](N)[C@H]3O)[C@H](N)C[C@@H]2N)[C@H](N)C[C@@H]1O` [TOBRAMYCIN] yielded an MIC50 (Enterococcus faecalis [1]) of 16 µg/mL (≈ 34.2 µM), an MIC90 (Enterococcus faecalis [1]) greater than 128 µg/mL and an MIC50 (Staphylococcus aureus) of 0.5 µg/mL (≈ 1.07 µM). The MIC90 (Staphylococcus aureus) was 1 µg/mL (≈ 2.14 µM), the MIC50 [2] was 0.015 µg/mL (≈ 0.0321 µM) and the MIC90 [2] was 0.06 µg/mL (≈ 0.128 µM). For the same compound, the MIC50 [3] was 0.06 µg/mL (≈ 0.128 µM), the MIC90 [3] was greater than 8 µg/mL and the MIC50 (Streptococcus pneumoniae) was 8 µg/mL (≈ 17.1 µM). It also gave an MIC90 (Streptococcus pneumoniae) of 16 µg/mL (≈ 34.2 µM), an MIC50 (Streptococcus anginosus [4]) of 16 µg/mL (≈ 34.2 µM) and an MIC90 (Streptococcus anginosus [4]) of 32 µg/mL (≈ 68.4 µM). For the same compound, the MIC50 [5] was 0.06 µg/mL (≈ 0.128 µM), the MIC90 [5] was greater than 8 µg/mL and the MIC50 [6] was 0.06 µg/mL (≈ 0.128 µM). It also gave an MIC90 [6] greater than 8 µg/mL, an MIC50 (Streptococcus mitis [7]) of 0.06 µg/mL (≈ 0.128 µM) and an MIC90 (Streptococcus mitis [7]) greater than 8 µg/mL. It also gave an MIC50 (Streptococcus salivarius [8]) of 0.06 µg/mL (≈ 0.128 µM), an MIC90 (Streptococcus salivarius [8]) greater than 8 µg/mL and an MIC50 (Streptococcus sanguinis [9]) of 0.06 µg/mL (≈ 0.128 µM). The MIC90 (Streptococcus sanguinis [9]) was greater than 8 µg/mL, the MIC50 (Acinetobacter lwoffii [10]) was 0.06 µg/mL (≈ 0.128 µM) and the MIC90 (Acinetobacter lwoffii [10]) was 0.5 µg/mL (≈ 1.07 µM). For the same compound, the MIC50 (Klebsiella aerogenes) was 0.5 µg/mL (≈ 1.07 µM), the MIC90 (Klebsiella aerogenes) was 8 µg/mL (≈ 17.1 µM) and the MIC50 (Proteus vulgaris [12]) was 1 µg/mL (≈ 2.14 µM). The MIC90 (Proteus vulgaris [12]) was 4 µg/mL (≈ 8.56 µM), the MIC50 (Pseudomonas aeruginosa [13]) was 8 µg/mL (≈ 17.1 µM) and the MIC90 (Pseudomonas aeruginosa [13]) was greater than 8 µg/mL. It also gave an MIC [14] greater than 8 µg/mL, an Activity [16] of 16.7% and an Activity (Staphylococcus hominis) of 16%. For the same compound, the Activity (Streptococcus agalactiae) was 73%, the Activity (Streptococcus anginosus [26]) was 95.5% and the Activity (Streptococcus equinus) was 95.5%. It also gave an Activity [27] of 95.5%, an Activity [28] of 95.5% and an Activity (Streptococcus mitis [29]) of 95.5%. The Activity (Streptococcus oralis) was 95.5%, the Activity (Streptococcus salivarius [30]) was 95.5% and the Activity (Streptococcus sanguinis [31]) was 95.5%. The Activity (Acinetobacter baumannii) was 60.4%, the Activity [17] was 92.6% and the Activity (Acinetobacter lwoffii [18]) was 94%. For the same compound, the Activity (Haemophilus influenzae) was “inactive”, the Activity (Klebsiella pneumoniae) was 100% and the Activity (Moraxella catarrhalis) was 100%. It also gave an Activity (Proteus vulgaris [20]) of 100%, an Activity (Pseudomonas aeruginosa [21]) of 95.2% and an Activity (Pseudomonas aeruginosa [22]) of 44.8%. The Activity (Serratia marcescens) was 100%, the Activity [23] was 0% and the Activity [24] was 1.9%. For the same compound, the MIC90 [25] was “inactive”.

— ChEMBL document CHEMBL1649565, “Besifloxacin, a novel fluoroquinolone, has broad-spectrum in vitro activity against aerobic and anaerobic bacteria” (Antimicrob Agents Chemother, 2009)
